1 compound from ChEMBL document CHEMBL6182949 (J Med Chem, 2025) can be followed below.

One data set addresses CYP2C19 (Homo sapiens, UniProt P33261). As to the kind of experiment: Inhibition of CYP2C19 in human liver microsome using (S)-mephenytoin as substrate at 10 uM preincubated for 5 mins followed by NADPH addition and measured after 30 mins by LC-MS/MS analysis relative to control. The format is ADME. The conditions noted are these: human liver microsomes, probe (S)-mephenytoin, time 35 min.

The target of data set [1] is Protein cereblon/Interleukin-1 receptor-associated kinase 4 (Homo sapiens, UniProt Q9NWZ3+Q96SW2). Description: PROTAC activity at CRBN/IRAK4 in human PBMC cells assessed as induction of IRAK4 degradation incubated for 24 hrs by HiBiT lytic reagent based analysis relative to control. The format is cell-based.
Protein cereblon/Interleukin-1 receptor-associated kinase 4, sequence (Q96SW2 whole entry, looked up): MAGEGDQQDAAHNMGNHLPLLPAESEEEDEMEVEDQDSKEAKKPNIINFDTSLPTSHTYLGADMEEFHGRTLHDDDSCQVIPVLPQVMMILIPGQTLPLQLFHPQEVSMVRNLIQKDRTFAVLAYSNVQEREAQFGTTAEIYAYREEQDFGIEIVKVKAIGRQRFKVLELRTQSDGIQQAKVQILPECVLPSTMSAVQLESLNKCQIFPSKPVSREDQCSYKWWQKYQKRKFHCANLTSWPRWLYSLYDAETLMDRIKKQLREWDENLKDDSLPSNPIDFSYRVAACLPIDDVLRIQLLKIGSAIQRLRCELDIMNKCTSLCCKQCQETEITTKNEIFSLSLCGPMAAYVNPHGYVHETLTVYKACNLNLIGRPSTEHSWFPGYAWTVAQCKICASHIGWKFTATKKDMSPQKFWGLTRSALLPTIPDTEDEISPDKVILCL
Protein cereblon/Interleukin-1 receptor-associated kinase 4, sequence (Q9NWZ3 whole entry, looked up): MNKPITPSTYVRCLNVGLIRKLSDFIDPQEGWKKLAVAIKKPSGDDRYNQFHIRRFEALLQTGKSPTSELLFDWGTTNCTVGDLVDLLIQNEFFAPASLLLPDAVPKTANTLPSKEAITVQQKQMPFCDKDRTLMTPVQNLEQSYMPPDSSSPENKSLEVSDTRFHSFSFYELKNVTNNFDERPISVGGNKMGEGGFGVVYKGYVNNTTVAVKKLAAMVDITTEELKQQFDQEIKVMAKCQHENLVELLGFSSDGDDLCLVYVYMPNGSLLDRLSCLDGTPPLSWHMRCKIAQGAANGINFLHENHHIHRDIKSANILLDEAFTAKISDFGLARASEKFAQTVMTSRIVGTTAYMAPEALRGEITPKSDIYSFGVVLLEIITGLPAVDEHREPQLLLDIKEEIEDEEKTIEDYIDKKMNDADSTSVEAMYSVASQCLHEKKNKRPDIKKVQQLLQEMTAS
Data set [2] is described as follows: Metabolic stability in rat liver microsome assessed as half life at 1 uM measured up to 60 mins in presence of NADPH by LC-MS/MS analysis. The format is ADME. The conditions noted are these: liver microsomes.
Data set [3] deals with Mus musculus. Description: Anti-psoriasis effect in IMQ-induced C57BL/6 mouse assessed as reduction in ear thickness at 30 mg/kg administered topically twice daily for 6 days and measured after 24 hrs. The format is functional, organism-based. The conditions noted are these: time 7.0 day.
Data set [4] concerns Mus musculus. As to the kind of experiment: Anti-arthritic activity against collagen-induced arthritis DBA/1 mouse model assessed as reduction in pathological score at 100 mg/kg, po administered for 14 days. The format is functional, organism-based. The conditions noted are these: time 14.0 day.
Data set [5] in a line: Cmax in cynomolgus monkey at 1 mg/kg, iv measured up to 24 hrs by LC-MS/MS analysis. The format is ADME, organism-based, Macaca fascicularis. The conditions noted are these: in vivo.

Calls of active or inactive are those of the source. No cut-off for these calls is given here.

CYP2C19, sequence (P33261 whole entry): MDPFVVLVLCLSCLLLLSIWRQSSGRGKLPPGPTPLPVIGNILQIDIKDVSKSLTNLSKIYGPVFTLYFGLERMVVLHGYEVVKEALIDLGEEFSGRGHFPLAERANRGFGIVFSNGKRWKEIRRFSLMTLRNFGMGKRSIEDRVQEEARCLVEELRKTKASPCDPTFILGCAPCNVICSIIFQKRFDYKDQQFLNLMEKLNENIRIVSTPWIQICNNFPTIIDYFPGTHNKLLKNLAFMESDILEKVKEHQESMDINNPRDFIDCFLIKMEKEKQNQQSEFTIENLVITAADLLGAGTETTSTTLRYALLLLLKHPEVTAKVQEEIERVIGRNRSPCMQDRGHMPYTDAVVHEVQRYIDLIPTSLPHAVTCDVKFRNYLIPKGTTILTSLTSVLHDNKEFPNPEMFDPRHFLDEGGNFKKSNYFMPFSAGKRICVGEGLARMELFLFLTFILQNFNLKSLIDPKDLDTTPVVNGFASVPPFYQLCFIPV

`Cn1c(=O)n(C2CCC(=O)NC2=O)c2cccc(C#CCO[C@H]3CC[C@H](CN4CCC5(CC4)Cc4cc(NC(=O)c6coc7cccnc67)c(N6CCC(CO)CC6)cc4O5)CC3)c21` (stereo partly specified) displayed an inhibition at 0.5 h, 10 µM on CYP2C19 of 45.1%. For the same compound, the Emax in data set [1] is 94%. The half-life at 1 µM in data set [2] is above 3.07 h. The outcome in the data set on Mus musculus [3] and in the data set with Mus musculus [4] was Active. In data set [5], this compound showed a maximum concentration (Cmax) of 672 ng/mL.
